According to article PMC4805777 (International Journal for Parasitology: Drugs and Drug …, 2016):

Tested on: T. cruzi (Strain H1)
Test: T. cruzi in vivo assay, second study
Design: species or system Trypanosoma cruzi
Details: BALB/c mice, 100 mg/kg/day orally, 21 days (method: 20 days)

O=C(Cn1ccnc1[N+](=O)[O-])NCc1ccccc1 [Benznidazole]
parasitemia, in words: undetectable | survival, in words (50-day study): all the mice survived
